Results taken from patent US20130123248A1, “PHARMACOLOGICAL MODULATION OF POSITIVE AMPA RECEPTOR MODULATOR EFFECTS ON NEUROTROPHIN EXPRESSION” (The Regents of the University of California, priority 2006, published 2013).
“Also recorded” adds a separate entry of the source.

Tests used:
mGluR5 = mGluR5 (Homo sapiens, UniProt P41594); settings: cited from earlier work
[1] = tested on: rat fear-potentiated startle model of anxiety; settings: cited from earlier work
BDNF mRNA = BDNF mRNA in situ hybridization in cultured rat hippocampal slices; format: cell-based; settings: for hybridization to BDNF mRNA, principal hippocampal cell layers, entorhinal cortex, neocortex: CX614 50 μM
Description: Cultured hippocampal slices were prepared from rat pups (9 d postnatal) essentially as described by Lauterborn et al. (Lauterborn et al., 2000, J Neurosci 20(1):8-21). Slices were explanted onto Millicel-CM biomembrane inserts (Millipore, Bedford, Mass.; 6 slices/membrane) in a 6-well culture cluster plate (Corning, Cambridge, Mass.) containing sterile media (1 ml/well) consisting of minimum essential media, 30 mM dextrose, 30 mM HEPES, 5 mM Na2HCO3, 3 mM glutamine, 0.5 mM ascorbic acid, 2 mM CaCl2, 2.5 mM MgSO4, 1 mg/l insulin and 20% horse serum (pH 7.2; all reagents from Sigma, St. Louis, Mo.) and maintained for 10-18 d in a humidified incubator at 37° C. in 5% CO2. Media was changed three times/week. All experiments with the […]® (Cortex Pharmaceuticals) and mGluR5 antagonist (gift from FRAXA Research Foundation) began on days 11-12 in culture and were performed essentially as described by Lauterborn et al. (Lauterborn et al., 2000, J Neurosci 20(1):8-21) and Huber et al. (Huber et al., 2002, Proc Natl Acad Sci USA 99(11):7746-50). […]® were dissolved in 100% dimethylsulfoxide (DMSO; Sigma) and stored at -20° C. MPEP was dissolved in 100% DMSO. […] For controls, cultures were either untreated or treated with equivalent concentrations of vehicle (i.e., DMSO at final concentrations of 1:2,000-1:10,000). […] The cRNA to BDNF exon V was generated from PvuII-digested recombinant plasmid pRl 112-8 (Isackson et al., 1991, Neuron 6:937-948), yielding a 540 base length probe with 384 bases complementary to BDNF exon V-containing mRNA (Timmusk et al., 1993, Neuron 10:475-489). In situ hybridization was performed essentially as described by Lauterborn et al. (Lauterborn et al., 2000, J Neurosci 20(1):8-21; Lauterborn et al., 1994, Mol Cell Neurosci 5:46-62). Briefly, for in situ hybridization analyses, treatments were terminated by slice fixation with 4% paraformaldehyde in 0.1 M phosphate buffer, pH 7.2 (PPB). Cultures were re-sectioned parallel to the broad explant surface, slide-mounted, and processed for the in situ hybridization localization of BDNF mRNA using the ^35S-labeled BDNF cRNA probe described above. Following hybridization, the tissue was processed for film (Kodak Biomax) autoradiography. Quantification of in situ hybridization was performed essentially as described by Lauterborn et al. (Lauterborn et al., 2000, J Neurosci 20(1):8-21). Briefly, for quantification of in situ hybridization, hybridization densities were measured from film autoradiograms, with labeling densities calibrated relative to film images of ^14C-labeled standards (μCi/g), using the AIS system (Imaging Research Inc.). Significance was determined using the two-way ANOVA followed by Student-Newman-Keuls (SNK) or Student's t tests for individual comparisons.

GluR1 mRNA = GluR1 mRNA in situ hybridization in hippocampal slice cultures; format: cell-based, rat; settings: 48 h
GluR2 mRNA = GluR2 mRNA in situ hybridization in hippocampal slice cultures; format: cell-based, rat; settings: 48 h
mature BDNF protein = experiment: Western blot for mature BDNF protein in organotypic hippocampal cultures; format: cell-based, rat; settings: 24 h; CX614 50 μM
Description: Cultured hippocampal slices were prepared from rat pups (9 d postnatal) essentially as described by Lauterborn et al. (Lauterborn et al., 2000, J Neurosci 20(1):8-21). Slices were explanted onto Millicel-CM biomembrane inserts (Millipore, Bedford, Mass.; 6 slices/membrane) in a 6-well culture cluster plate (Corning, Cambridge, Mass.) containing sterile media (1 ml/well) consisting of minimum essential media, 30 mM dextrose, 30 mM HEPES, 5 mM Na2HCO3, 3 mM glutamine, 0.5 mM ascorbic acid, 2 mM CaCl2, 2.5 mM MgSO4, 1 mg/l insulin and 20% horse serum (pH 7.2; all reagents from Sigma, St. Louis, Mo.) and maintained for 10-18 d in a humidified incubator at 37° C. in 5% CO2. Media was changed three times/week. […]
For protein determinations, drug-treated and vehicle-treated hippocampal slice cultures were homogenized in RIPA (Radio-Immunoprecipitation Assay) buffer containing 10 mM Tris, pH 7.2, 158 mM NaCl, 1 mM EDTA, 0.1% SDS, 1% sodium deoxycholate, 1% triton-X, Complete Protease Inhibitor Cocktail (Roche Diagnostics; Indianapolis, Ind.), and Phosphatase Inhibitor Cocktails 1 and 2 (P2850 and 5726, Sigma), normalized for protein content using the Bio-Rad protein assay, and analyzed by Western blot analysis. […] Binding of anti-BDNF antibodies to BDNF was detected by enhanced chemiluminescence. Band densities were quantified using ImageQuant software (Molecular Dynamics, Sunnyvale, Calif.). […]

[2] = CX614 (20 μM in FIG. 6 legend, 50 μM in Example 6), MPEP 50 μM or both

Chain of mGluR5 (P41594 21-1212): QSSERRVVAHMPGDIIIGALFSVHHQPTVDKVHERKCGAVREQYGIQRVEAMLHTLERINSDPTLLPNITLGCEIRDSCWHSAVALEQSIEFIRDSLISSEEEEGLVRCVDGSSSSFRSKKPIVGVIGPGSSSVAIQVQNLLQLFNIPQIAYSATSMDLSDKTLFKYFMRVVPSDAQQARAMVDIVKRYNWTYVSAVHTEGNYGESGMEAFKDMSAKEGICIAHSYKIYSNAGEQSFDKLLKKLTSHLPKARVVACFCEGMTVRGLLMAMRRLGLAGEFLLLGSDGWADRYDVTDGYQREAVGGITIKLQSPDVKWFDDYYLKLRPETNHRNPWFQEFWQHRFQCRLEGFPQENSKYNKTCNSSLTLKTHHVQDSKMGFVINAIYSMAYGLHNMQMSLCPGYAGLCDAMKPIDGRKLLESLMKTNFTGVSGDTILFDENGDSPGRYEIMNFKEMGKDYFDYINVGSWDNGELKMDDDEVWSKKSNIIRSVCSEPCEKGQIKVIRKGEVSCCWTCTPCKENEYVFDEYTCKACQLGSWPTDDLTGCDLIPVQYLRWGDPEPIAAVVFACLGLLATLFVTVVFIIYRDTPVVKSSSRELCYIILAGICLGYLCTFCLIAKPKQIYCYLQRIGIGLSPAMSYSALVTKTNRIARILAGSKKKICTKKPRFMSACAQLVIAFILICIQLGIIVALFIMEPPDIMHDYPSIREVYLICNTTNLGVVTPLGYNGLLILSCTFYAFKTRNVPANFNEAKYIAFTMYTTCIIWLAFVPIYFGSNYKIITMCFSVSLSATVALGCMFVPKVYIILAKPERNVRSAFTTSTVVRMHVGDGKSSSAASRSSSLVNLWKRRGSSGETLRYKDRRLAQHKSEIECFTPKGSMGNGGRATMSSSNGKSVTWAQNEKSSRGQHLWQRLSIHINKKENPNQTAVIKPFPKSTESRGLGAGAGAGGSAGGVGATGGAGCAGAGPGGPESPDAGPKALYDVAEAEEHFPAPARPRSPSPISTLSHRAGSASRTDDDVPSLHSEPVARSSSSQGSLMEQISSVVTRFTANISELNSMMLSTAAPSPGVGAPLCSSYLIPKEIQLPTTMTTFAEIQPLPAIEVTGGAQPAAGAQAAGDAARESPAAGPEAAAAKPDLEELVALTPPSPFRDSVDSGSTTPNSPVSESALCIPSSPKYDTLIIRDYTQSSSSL

Structure (SMILES): C=Cc1cncc(C#Cc2csc(C)n2)c1 [Iso et al. compound 59, 3-[(2-methyl-4-thiazoly)ethynyl]-5-vinylpyridine]
- antagonistic potency relative to MTEP (mGluR5): 230 times

Structure (SMILES): Cc1nc(C#Cc2cccnc2)cs1 [MTEP, 3-[(2-methyl-1,3-thiazol-4-yl)ethynyl]pyridine]
- potency relative to MPEP [1]: 5 fold

Structure (SMILES): O=C1c2cc3c(cc2OC2CCCN12)OCCO3 (stereo not shown) [CX614, 2H,3H,6aH-pyrrolidino[2″,1″-3′,2′]1,3-oxazino[6′,5′-5,4]benzo[e]1,4-dioxan-10-one]
- BDNF cRNA labeling, granule cells (BDNF mRNA; 3 h, 10 μM CX614): modest increase
- BDNF mRNA levels in CA1 stratum pyramidale, effect in words (BDNF mRNA; 3 h, CX614 50 μM with or without MPEP 50 μM): small but non-significant increased
- increase in BDNF mRNA, hippocampal granule cells (stratum granulosum) (BDNF mRNA; 3 h, CX614 50 μM with or without MPEP 50 μM, vs control): 6.5 fold
- BDNF mRNA, granule cells (BDNF mRNA; 3 h, CX614 10, 20 or 50 μM): increased by all three doses
- BDNF mRNA, pyramidal cells of CA1 and CA3 (BDNF mRNA; 3 h, CX614 10, 20 or 50 μM): only increased with the 50 μM concentration; also recorded: only 50 μM CX614 elicited significant increases
- BDNF cRNA labeling, granule cells (BDNF mRNA; 3 h, higher doses of CX614 (20, 50 μM)): more dramatic increases
- BDNF mRNA levels, CA1 pyramidal cells (BDNF mRNA; 24 h, CX614 20 μM with or without MPEP 50 μM): small but non-significant increase
- hybridization to BDNF mRNA, principal hippocampal cell layers, entorhinal cortex, neocortex (BDNF mRNA; 6 h): increased; also recorded: markedly elevated
- hybridization to BDNF mRNA, principal hippocampal cell layers, entorhinal cortex, neocortex (BDNF mRNA; 24 h continuous treatment): still elevated above control densities; also recorded: begin to decline
- reduction of GluR1 mRNA levels, CA1 stratum pyramidale (GluR1 mRNA; CX614 20 μM (FIG. 6 legend)): 40%
- reduction of GluR1 mRNA levels, CA1 pyramidal cell layer, compared to control (GluR1 mRNA; CX614 50 μM (Example 6)): 40-45%
- reduction of GluR2 mRNA levels, CA1 stratum pyramidale (GluR2 mRNA; CX614 20 μM (FIG. 6 legend)): ~50%
- reduction of GluR2 mRNA levels, CA1 pyramidal cell layer, compared to control (GluR2 mRNA; CX614 50 μM (Example 6)): 40-45%
- mature BDNF protein levels above control levels (mature BDNF protein): 133%

Structure (SMILES): Cc1cccc(C#Cc2ccccc2)n1 [MPEP, 2-methyl-6-(phenylethynyl)pyridine]
- BDNF mRNA levels in the granule cell layer / any field, effect in words (BDNF mRNA; 3 h, MPEP 50 μM alone): unaffected; also recorded: no effect in any field
- GluR1 mRNA levels, CA1, effect in words (GluR1 mRNA; [2]): no significant effect
- GluR2 mRNA levels, CA1, effect in words (GluR2 mRNA; [2]): no significant effect; also recorded: small but non-significant increase
